Results as given in patent US10213429B2, “Imidazo-pyrazinyl derivatives useful as soluble guanylate cyclase activators” (Merck Sharp & Dohme Corp., priority 2015, dated 2019).

Tests used:
[1] = target: T1, sGC α1/β1 heterodimer (Homo sapiens, UniProt Q02108+Q02153); experiment: Cell-Based sGC Functional Assay (CASA Assay), cGMP by HTRF in CHO-K1/sGC cells; conditions: for Emax: CHO-K1, percent activation relative to maximum cGMP production of Compound A (= 100%), read-out: % Act.; for EC50: cGMP production, 1 hr at 37° C., 4P fit, presence or absence of 1 μM DETA-NO not given, read-out: IP (nM) (inflection point)
T1 construct: expressed in transfected cells; host or cells: CHO-K1 (clone #7, CHO-K1/sGC)
T1 sequence (Q02108 1-690): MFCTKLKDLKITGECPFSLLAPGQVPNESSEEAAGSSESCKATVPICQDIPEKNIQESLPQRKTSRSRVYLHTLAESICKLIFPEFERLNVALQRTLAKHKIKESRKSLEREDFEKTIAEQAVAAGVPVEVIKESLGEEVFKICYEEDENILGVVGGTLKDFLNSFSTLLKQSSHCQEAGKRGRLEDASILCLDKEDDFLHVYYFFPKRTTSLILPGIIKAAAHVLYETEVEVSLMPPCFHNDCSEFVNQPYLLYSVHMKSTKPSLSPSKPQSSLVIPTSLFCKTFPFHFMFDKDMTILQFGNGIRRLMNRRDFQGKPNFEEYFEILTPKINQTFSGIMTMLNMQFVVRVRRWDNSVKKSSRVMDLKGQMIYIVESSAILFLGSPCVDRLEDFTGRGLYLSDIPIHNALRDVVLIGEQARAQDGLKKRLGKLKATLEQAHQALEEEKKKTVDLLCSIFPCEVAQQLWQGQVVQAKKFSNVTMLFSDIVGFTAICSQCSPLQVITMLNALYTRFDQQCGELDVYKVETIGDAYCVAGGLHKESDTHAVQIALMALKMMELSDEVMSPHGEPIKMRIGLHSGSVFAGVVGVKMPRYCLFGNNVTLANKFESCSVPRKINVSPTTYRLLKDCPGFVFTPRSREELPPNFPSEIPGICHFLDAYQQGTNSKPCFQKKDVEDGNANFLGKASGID
T1 sequence (Q02153 1-619): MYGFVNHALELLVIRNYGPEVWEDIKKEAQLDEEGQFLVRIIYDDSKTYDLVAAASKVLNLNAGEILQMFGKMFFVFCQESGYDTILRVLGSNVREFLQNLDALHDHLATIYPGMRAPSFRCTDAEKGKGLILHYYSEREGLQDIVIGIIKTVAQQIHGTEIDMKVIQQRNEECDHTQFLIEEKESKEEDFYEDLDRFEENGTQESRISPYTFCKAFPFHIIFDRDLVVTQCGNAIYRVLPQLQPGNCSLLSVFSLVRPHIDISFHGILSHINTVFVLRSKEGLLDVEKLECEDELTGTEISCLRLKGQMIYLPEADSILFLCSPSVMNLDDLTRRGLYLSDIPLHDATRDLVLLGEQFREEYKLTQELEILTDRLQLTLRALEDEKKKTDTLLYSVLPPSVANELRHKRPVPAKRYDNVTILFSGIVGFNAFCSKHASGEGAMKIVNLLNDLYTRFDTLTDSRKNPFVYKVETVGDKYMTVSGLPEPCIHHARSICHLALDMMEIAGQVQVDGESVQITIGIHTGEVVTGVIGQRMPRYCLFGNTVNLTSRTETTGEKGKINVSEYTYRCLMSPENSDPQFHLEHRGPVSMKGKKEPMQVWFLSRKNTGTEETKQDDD
How it was run: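 CHO-K1 cells stably expressing human sGC α1/β1, in EBSS buffer with 5 mM MgCl2, 10 mM HEPES, 0.05% BSA and 0.5 mM IBMX, incubated with compound (2.5% DMSO) ± 1 μM DETA-NO, 1 h, 37 °C. Intracellular cGMP read by HTRF; activity as % of reference activator maximum, IP from 4-parameter fit.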

[2] = test system: Spontaneously hypertensive rats (SHR); experiment: Acute Efficacy in Spontaneously Hypertensive Rats (SHR), telemetry blood pressure; type: in vivo, rat; conditions: SHR male
From the text: Acute Efficacy in Spontaneously Hypertensive Rats (SHR)
Spontaneously hypertensive rats (SHR, male, Charles River) were implanted with DSI TA11PA-C40 telemetry device (Data Sciences, Inc., St. Paul, Minn.) under isoflurane or ketamine/metomidine anesthesia. The telemetry unit catheter was inserted into the descending aorta via the femoral artery and the telemetry device was implanted subcutaneously in the left flank area. Animals were allowed to recover from surgery for 14 days before the start of any studies. Blood pressure, heart rate, and activity signals from conscious, freely moving rats were recorded continuously for 30 seconds every 10 minutes. On the day prior to administration of compound, a single oral dose of vehicle (10% transcutol/20% Cremophor/70% water) was administered to all animals to establish baseline control data. The blood pressure lowering efficacy of compound (PO) or vehicle was evaluated following a single oral gavage. Data were collected as hourly averages, and changes in blood pressure were calculated by subtracting control baseline data on an hourly basis. Animals were maintained on normal diet with a 12 hour light-dark cycle.
Maximum peak decreases of systolic blood pressure (SBP) in SHR at a particular P.O. dose (mpk milligrams per kilogram) for the following representative compounds are provided. • Category A=SBP in SHRs<20 mmHg; Category B=SBP in SHRs 20-40 mmHg; • Category C=SBP in SHRs>40 mmHg

| Emax [1] | EC50 [1] | SMILES | Cat. (maximum peak decrease of systolic blood pressure (SBP) in SHR) ([2]; single oral dose 3.0 mpk P.O.) | Cat. (maximum peak decrease of systolic blood pressure (SBP) in SHR) ([2]; single oral dose 1.0 mpk P.O.) | Cat. (maximum peak decrease of systolic blood pressure (SBP) in SHR) ([2]; single oral dose 0.3 mpk P.O.) |
| --- | --- | --- | --- | --- | --- |
| 102% | 433 nM | CC1(c2ccc(F)cc2)C(=O)Nc2nc(-c3cn4ccnc4c(CCC(F)(F)C(F)(F)F)n3)nc(O)c21 (stereo not drawn) [Example 2A, 5-(4-Fluorophenyl)-4-hydroxy-5-methyl-2-(8-(3,3,4,4,4-pentafluorobutyl)imidazo[1,2-a]pyrazin-6-yl)-5H-pyrrolo[2,3-d]pyrimidin-6(7H)-one] | B (Category B=SBP in SHRs 20-40 mmHg) | – | – |
| 155% | 63 nM | O=C1Nc2nc(-c3cn4ccnc4c(CCCC(F)(F)F)n3)ncc2C1(c1ccc(Cl)cc1)C1CC1 (stereo not drawn) [Example 50B, 5-(4-chlorophenyl)-5-cyclopropyl-2-(8-(4,4,4-trifluorobutyl)imidazo[1,2-a]pyrazin-6-yl)-5H-pyrrolo[2,3-d]pyrimidin-6(7H)-one] | – | B (Category B=SBP in SHRs 20-40 mmHg) | – |
| 167% | 106 nM | CC1(C(=O)NC2CC2)C(=O)Nc2nc(-c3cn4ccnc4c(Cc4ccc(F)cc4)n3)ncc21 (single isomer, unassigned) [Example 67A, N-Cyclopropyl-2-(8-(4-fluorobenzyl)imidazo[1,2-a]pyrazin-6-yl)-5-methyl-6-oxo-6,7-dihydro-5H-pyrrolo[2,3-d]pyrimidine-5-carboxamide] | – | B (Category B=SBP in SHRs 20-40 mmHg) | – |
| 98% | 104 nM | CC1(c2ccc(F)cn2)C(=O)Nc2nc(-c3cn4ccnc4c(CCC(F)(F)C(F)(F)F)n3)ncc21 (stereo not drawn) [Example 62B, 5-(5-fluoropyridin-2-yl)-5-methyl-2-(8-(3,3,4,4,4-pentafluorobutyl)imidazo[1,2-a]pyrazin-6-yl)-5H-pyrrolo[2,3-d]pyrimidin-6(7H)-one] | – | B (Category B=SBP in SHRs 20-40 mmHg) | – |
| 125% | 800 nM | CC1(c2ccc(F)c(F)c2)C(=O)Nc2nc(-c3cn4ccnc4c(CCC(F)(F)F)n3)ncc21 (stereo not drawn) [Example 37B, 5-(3,4-difluorophenyl)-5-methyl-2-(8-(3,3,3-trifluoropropyl)imidazo[1,2-a]pyrazin-6-yl)-5H-pyrrolo[2,3-d]pyrimidin-6(7H)-one] | B (Category B=SBP in SHRs 20-40 mmHg) | – | – |
| 101% | 92 nM | CCCc1nc(-c2ncc3c(n2)NC(=O)C3(C)c2ccc(Cl)cc2)cn2ccnc12 (stereo not drawn) [Example 39A, 5-(4-chlorophenyl)-5-methyl-2-(8-propylimidazo[1,2-a]pyrazin-6-yl)-5H-pyrrolo[2,3-d]pyrimidin-6(7H)-one] | – | A (Category A=SBP in SHRs<20 mmHg) | – |
| 191% | 589 nM | Cc1cn2cc(-c3ncc4c(n3)NC(=O)C4(C)c3ccc(F)cn3)nc(CCCC(F)(F)F)c2n1 (stereo not drawn) [Example 90B, 5-(5-Fluoropyridin-2-yl)-5-methyl-2-(2-methyl-8-(4,4,4-trifluorobutyl)imidazo[1,2-a]pyrazin-6-yl)-5H-pyrrolo[2,3-d]pyrimidin-6(7H)-one] | – | – | B (Category B=SBP in SHRs 20-40 mmHg) |
| 78% | 365 nM | CC1(c2ccc(F)cn2)C(=O)Nc2nc(-c3cn4ccnc4c(CCC(F)(F)C(F)(F)F)n3)nc(O)c21 (single isomer, unassigned) [Example 18B, 5-(5-fluoropyridin-2-yl)-4-hydroxy-5-methyl-2-(8-(3,3,4,4,4-pentafluorobutyl)imidazo[1,2-a]pyrazin-6-yl)-5H-pyrrolo[2,3-d]pyrimidin-6(7H)-one] | A (Category A=SBP in SHRs<20 mmHg) | – | – |
| 141% | 35 nM | CC1(c2ccc(F)cc2)C(=O)Nc2nc(-c3cn4ccnc4c(CCCC(F)(F)F)n3)ncc21 (stereo not drawn) [Example 64A, 5-(4-fluorophenyl)-5-methyl-2-(8-(4,4,4-trifluorobutyl)imidazo[1,2-a]pyrazin-6-yl)-5H-pyrrolo[2,3-d]pyrimidin-6(7H)-one] | – | – | B (Category B=SBP in SHRs 20-40 mmHg) |
| 104% | 144 nM | CC1(c2ccc(F)cc2)C(=O)Nc2nc(-c3cn4ccnc4c(Cc4ccc(F)cc4)n3)nc(O)c21 (stereo not drawn) [Example 81A, 2-(8-(4-fluorobenzyl)imidazo[1,2-a]pyrazin-6-yl)-5-(4-fluorophenyl)-4-hydroxy-5-methyl-5H-pyrrolo[2,3-d]pyrimidin-6(7H)-one] | – | B (Category B=SBP in SHRs 20-40 mmHg) | – |
| 90% | 200 nM | CC1(c2ccc(Cl)cc2)C(=O)Nc2nc(-c3cn4ccnc4c(CCCC(F)(F)F)n3)nc(O)c21 (stereo not drawn) [Example 26A, 5-(4-chlorophenyl)-4-hydroxy-5-methyl-2-(8-(4,4,4-trifluorobutyl)imidazo[1,2-a]pyrazin-6-yl)-5H-pyrrolo[2,3-d]pyrimidin-6(7H)-one] | C (Category C=SBP in SHRs>40 mmHg) | – | – |
| 95% | 645 nM | CC1(c2ccc(Cl)cn2)C(=O)Nc2nc(-c3cn4ccnc4c(CC4CCC4)n3)nc(O)c21 (stereo not drawn) [Example 27A, 5-(5-chloropyridin-2-yl)-2-(8-(cyclobutylmethyl)imidazo [1,2-a]pyrazin-6-yl)-4-hydroxy-5-methyl-5H-pyrrolo[2,3-d]pyrimidin-6(7H)-one] | B (Category B=SBP in SHRs 20-40 mmHg) | – | – |
| 118% | 253 nM | CC1(c2ccc(F)cn2)C(=O)Nc2nc(-c3cn4ccnc4c(Cc4ccc(F)cc4)n3)nc(O)c21 (stereo not drawn) [Example 6B, 2-(8-(4-fluorobenzyl)imidazo[1,2-a]pyrazin-6-yl)-5-(5-fluoropyridin-2-yl)-4-hydroxy-5-methyl-5H-pyrrolo[2,3-d]pyrimidin-6(7H)-one] | – | C (Category C=SBP in SHRs>40 mmHg) | – |
| 155% | 791 nM | O=C1Nc2nc(-c3cn4ccnc4c(CCCC(F)(F)F)n3)ncc2C1(c1ccc(OC(F)(F)F)cc1)C1CC1 (stereo not drawn) [Example 52A, 5-cyclopropyl-2-(8-(4,4,4-trifluorobutyl)imidazo[1,2-a]pyrazin-6-yl)-5-(4-(trifluoromethoxy)phenyl)-5H-pyrrolo[2,3-d]pyrimidin-6(7H)-one] | A (Category A=SBP in SHRs<20 mmHg) | – | – |
| 111% | 235 nM | CC(C)Cc1nc(-c2ncc3c(n2)NC(=O)C3(C)c2ccc(Cl)cn2)cn2ccnc12 (stereo not drawn) [Example 41A, 5-(5-chloropyridin-2-yl)-2-(8-isobutylimidazo[1,2-a]pyrazin-6-yl)-5-methyl-5H-pyrrolo[2,3-d]pyrimidin-6(7H)-one] | A (Category A=SBP in SHRs<20 mmHg) | – | – |
